{"source": "patent US12545677B2", "about": "“Compounds useful as factor XIa inhibitors” (JANSSEN PHARMACEUTICA NV, priority 2020, dated 2026)", "key": {"human plasma kallikrein": {"target": "human plasma kallikrein (Homo sapiens, UniProt P03952)", "sequence (P03952 391-638 limits assumed)": "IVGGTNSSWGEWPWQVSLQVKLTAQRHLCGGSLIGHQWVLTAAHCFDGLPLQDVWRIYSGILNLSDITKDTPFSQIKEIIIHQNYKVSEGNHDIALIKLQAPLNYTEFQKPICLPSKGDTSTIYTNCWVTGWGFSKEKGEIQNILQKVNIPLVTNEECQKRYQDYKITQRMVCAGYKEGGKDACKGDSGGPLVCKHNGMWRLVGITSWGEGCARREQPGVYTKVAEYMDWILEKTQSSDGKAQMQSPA", "sequence (P03952 20-390 partner limits assumed)": "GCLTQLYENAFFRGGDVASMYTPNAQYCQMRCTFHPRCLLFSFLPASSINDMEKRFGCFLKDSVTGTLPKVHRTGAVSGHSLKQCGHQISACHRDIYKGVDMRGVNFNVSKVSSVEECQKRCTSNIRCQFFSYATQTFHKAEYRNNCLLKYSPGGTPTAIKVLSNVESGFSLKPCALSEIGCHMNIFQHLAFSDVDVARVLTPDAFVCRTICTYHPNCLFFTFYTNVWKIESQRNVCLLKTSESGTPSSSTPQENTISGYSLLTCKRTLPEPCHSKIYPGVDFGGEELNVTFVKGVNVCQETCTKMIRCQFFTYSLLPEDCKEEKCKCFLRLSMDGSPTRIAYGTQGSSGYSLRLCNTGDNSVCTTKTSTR", "test": "Kallikrein inhibition assay utilizing quenched AMC peptide substrate", "assay_type": "biochemical", "conditions": "read-out: Plasma kallikrein (PK) IC50", "description": "Biological Example 2: Kallikrein Inhibition Assay\nUtilizing Quenched AMC Peptide Substrate\nA fluorescence intensity-based assay was used to monitor inhibition of human plasma kallikrein. The peptide substrate, Z-Gly-Pro-Arg-AMC (Purchased from Bachem; Catalog #1-1150) was chosen based on its relatively low KM for kallikrein which enables running the assay at lower substrate concentrations to control background fluorescence. The kinetic parameters for this substrate were determined by fitting titration data to the Michaelis-Menten equation yielding a KM=40 μM, kcat=0.76 s^−1, and kcat/KM=18932 M^−1s^−1.\nKallikrein FLINT assay was used with the following Z-Gly-Pro-Arg-AMC assay buffer: 50 mM Tris, pH 7.5, 100 mM NaCl, 5 mM CaCl2, 0.1 mg/mL BSA, 0.03% CHAPS. Assay buffer was prepared by mixing all ingredients fresh. 2× Z-Gly-Pro-Arg-AMC peptide substrate was prepared by diluting 10 mM stock into 1× assay buffer for a 100 μM working concentration (50 μM final concentration). The 2× kallikrein stock solution was prepared by diluting 14.76 μM stock in 1× assay buffer for a 4 nM working stock solution (2 nM final concentration).\nTest compound(s) were run in an 11-point, 3-fold serial dilution with a final top compound concentration of 1 μM. Final DMSO in assay: 2% DMSO. 2 nM kallikrein and test compound were pre-incubated for 30 minutes and 50 μM substrate was then added to initiate the reaction. The assay was linear using 2 nM kallikrein greater than 30 minutes. More specifically, the assay was run as follows: • 100 nL of 1 mM test compound was dispensed into a black 384-well non-binding Greiner BioOne 784900 plate for 10 μM final concentration with 1% DMSO final concentration; • 5 μL of 1× assay buffer was dispensed to columns 24 (low control) and 5 μL 2× human kallikrein enzyme solution was dispensed to columns 1-23 (column 23 high control); • the plate was centrifuged with a cover plate at 500 rpm for 1 min • the plate was pre-incubated for 30 minutes at room temperature with plate covered; • 5 μL of 2× Z-Gly-Pro-Arg-AMC peptide substrate was dispensed into the entire plate, columns 1-24; • the plate was centrifuged with a “cover” plate at 500 rpm for 1 min; • the plate was read kinetically monitoring fluorescence intensity on the BMG PHERAStar at room temperature, using fluorescence module F1 340 mm/440 mm.\nPercent inhibition (IC50) curves were generated per compound tested, and data was analyzed using a 4-parameter logistic fit using GeneData Screener. […]"}, "[1]": {"system": "mitochondrial respiration in HepG2 cells", "test": "Seahorse assay, mitochondrial respiration", "assay_type": "cell-based", "conditions": "Homo sapiens, 0.3-100 μM, read-out: IC50, mitochondrial respiration as measured by spare respiratory capacity", "description": "Biological Example 11: Seahorse Assay\nThe purpose of this assay was to investigate the effect of the compound of formula (I-A) on mitochondrial respiration in HepG2 cells using the Agilent Seahorse XFe96 analyzer. Cell viability was also determined in HepG2 cells in parallel to the Seahorse assay.\nMeasurement of mitochondrial respiration in HepG2 Cells: Compound doses were prepared in 100% DMSO and subsequently diluted in assay medium to achieve final solvent concentration of 0.10%. HepG2 cells were plated overnight in a Seahorse plate (Agilent Technologies, Santa Clara, California) at a density of 40,000 cells/well in EMEM containing 10% HI FBS and 1× Pen/Strep cell culture. […] Mitochondrial respiration, quantitated as oxygen consumption rate (OCR), was measured on an Agilent Seahorse XFe96 analyzer using the Seahorse Mito Stress test assay as per the manufacturer's protocol. […]\nData Analyses: Mitochondrial SRC (spare respiratory capacity) was calculated by subtracting the rate of the basal respiration from the rate of the maximal respiration. […] All experiments were run in triplicate and the mean and standard deviations were calculated for each test concentration. […]\nIC50 values were determined by nonlinear regression and fitting of the dose response curves to a […] equation with variable slope (Hill coefficient): […]"}}, "note": "pIC50: −log10 of the molar value."}
{"smiles": "O=C(O)c1nccc(-c2cnc([C@@H]3CC[C@@H]4CC(c5c(-n6cnnn6)ccc(Cl)c5F)=CC(=O)N43)[nH]2)c1F", "note": "[Compound of formula (II-A), 4-(2-((3S,8aR)-7-(3-chloro-2-fluoro-6-(1H-tetrazol-1-yl)phenyl)-5-oxo-1,2,3,5,8,8a-hexahydroindolizin-3-yl)-1H-imidazol-5-yl)-3-fluoropicolinic acid]", "values": [{"measurement": "pIC50", "setting": "human plasma kallikrein", "value": 7.96}]}
{"smiles": "O=C1C=C(c2c(-n3cnnn3)ccc(Cl)c2F)C[C@H]2CC[C@@H](c3ncc(-c4ccnc(CO)c4F)[nH]3)N12", "note": "[Compound of formula (I-A), (3S,8aR)-7-(3-Chloro-2-fluoro-6-(1H-tetrazol-1-yl)phenyl)-3-(5-(3-fluoro-2-(hydroxymethyl)pyridin-4-yl)-1H-imidazol-2-yl)-2,3,8,8a-tetrahydroindolizin-5(1H)-one]", "values": [{"measurement": "pIC50", "setting": "[1]", "value": "< 4.00"}]}
